Measurements: ChEMBL document CHEMBL3600303, “The N-Terminal T-T Motif of a Third-Generation HIV-1 Fusion Inhibitor Is Not Required for Binding Affinity and Antiviral Activity” (J Med Chem, 2015)
Activity calls are given as the source filed them. No cut-off for these calls is given here.

Tests used:
[1] = test system: Human immunodeficiency virus 1; test: Antiviral activity against HIV-1 SF162 pseudovirus infected in human TZM-bl cells assessed as inhibition of viral entry into cells after 48 hrs by single-cycle infection assay; type: functional, organism-based; settings: Human immunodeficiency virus 1, SF162, TZM-bl
[2] = Thermostability of the compound in PBS assessed as melting temperature at 20 uM by CD spectroscopic analysis; type: physicochemical; settings: buffer
[3] = test system: Human immunodeficiency virus 1; test: Antiviral activity against HIV-1 ZM214M.15 pseudovirus infected in human TZM-bl cells assessed as inhibition of viral entry into cells after 48 hrs by single-cycle infection assay; type: functional, organism-based; settings: Human immunodeficiency virus 1, ZM214M.15, TZM-bl
[4] = test system: Human immunodeficiency virus 1; test: Antiviral activity against ENF-resistant HIV1 NL4-3 harboring gp41 N-terminal heptad repeat V38A mutant infected in human TZM-bl cells assessed as inhibition of viral entry into cells after 48 hrs by single-cycle infection assay; type: functional, organism-based
[5] = test system: Human immunodeficiency virus 1; test: Antiviral activity against ENF-resistant HIV1 NL4-3 harboring gp41 N-terminal heptad repeat D36S/V38M double mutant infected in human TZM-bl cells assessed as inhibition of viral entry into cells after 48 hrs by single-cycle infection assay; type: functional, organism-based
[6] = test system: Human immunodeficiency virus 1; test: Antiviral activity against ENF-resistant HIV1 NL4-3 harboring gp41 N-terminal heptad repeat Q40H mutant infected in human TZM-bl cells assessed as inhibition of viral entry into cells after 48 hrs by single-cycle infection assay; type: functional, organism-based
[7] = test system: Human immunodeficiency virus 1; test: Ratio of IC50 for ENF-resistant HIV1 NL4-3 harboring gp41 N-terminal heptad repeat V38A/N42T double mutant to IC50 for wild type HIV1 NL4-3; type: functional
[8] = biological target: Envelope glycoprotein gp160 (Human immunodeficiency virus type 1 group M subtype B (isolate HXB2)(HIV-1), UniProt P04578); test: Binding affinity to HIV-1 HXB2 gp41 N-terminal heptad repeat assessed as inhibition of 6-helix bundle formation after 30 mins by ELISA; parameters: species or system Human immunodeficiency virus 1
[9] = test system: Human immunodeficiency virus 1; test: Ratio of IC50 for ENF-resistant HIV1 NL4-3 harboring gp41 N-terminal heptad repeat Q40H mutant to IC50 for wild type HIV1 NL4-3; type: functional
[10] = test system: Human immunodeficiency virus 1; test: Antiviral activity against ENF-resistant HIV1 NL4-3 harboring gp41 N-terminal heptad repeat I37T mutant infected in human TZM-bl cells assessed as inhibition of viral entry into cells after 48 hrs by single-cycle infection assay; type: functional, organism-based
[11] = test system: Human immunodeficiency virus 1; test: Antiviral activity against HIV-1 pseudovirus harboring Q66R/N126K double mutant; type: functional, organism-based
[12] = test system: Human immunodeficiency virus 1; test: Antiviral activity against ENF-resistant HIV1 NL4-3 harboring gp41 N-terminal heptad repeat D36G mutant infected in human TZM-bl cells assessed as inhibition of viral entry into cells after 48 hrs by single-cycle infection assay; type: functional, organism-based
[13] = biological target: Envelope glycoprotein gp160 (Human immunodeficiency virus 1) (UniProt Q72502); test: Binding affinity to HIV1 NL4-3 gp41 N-terminal heptad repeat I37T mutant after 30 mins by CD spectroscopic analysis
[14] = test system: Human immunodeficiency virus 1; test: Antiviral activity against wild type HIV-1; type: functional, organism-based
[15] = biological target: Envelope glycoprotein gp160 (Human immunodeficiency virus 1) (UniProt Q72502); test: Binding affinity to HIV1 NL4-3 gp41 N-terminal heptad repeat I37T/N43K double mutant after 30 mins by CD spectroscopic analysis
[16] = test system: Human immunodeficiency virus 1; test: Antiviral activity against wild type HIV1 NL4-3 infected in human TZM-bl cells assessed as inhibition of viral entry into cells after 48 hrs by single-cycle infection assay; type: functional, organism-based; settings: Human immunodeficiency virus 1, NL4-3, TZM-bl
[17] = test system: Envelope glycoprotein gp160 (Human immunodeficiency virus 1), Q72502 [V38A]; test: Binding affinity to HIV1 NL4-3 gp41 N-terminal heptad repeat V38A mutant after 30 mins by CD spectroscopic analysis
[18] = test system: Human immunodeficiency virus 1; test: Antiviral activity against ENF-resistant HIV1 NL4-3 harboring gp41 N-terminal heptad repeat V38A/N42T double mutant infected in human TZM-bl cells assessed as inhibition of viral entry into cells after 48 hrs by single-cycle infection assay; type: functional, organism-based
[19] = test system: Human immunodeficiency virus 1; test: Ratio of IC50 for ENF-resistant HIV1 NL4-3 harboring gp41 N-terminal heptad repeat N43K mutant to IC50 for wild type HIV1 NL4-3; type: functional
[20] = test system: Human immunodeficiency virus 1; test: Ratio of IC50 for ENF-resistant HIV1 NL4-3 harboring gp41 N-terminal heptad repeat D36S/V38M double mutant to IC50 for wild type HIV1 NL4-3; type: functional
[21] = test system: Human immunodeficiency virus 1; test: Ratio of IC50 for ENF-resistant HIV1 NL4-3 harboring gp41 N-terminal heptad repeat D36G mutant to IC50 for wild type HIV1 NL4-3; type: functional
[22] = test system: Human immunodeficiency virus 1; test: Antiviral activity against HIV-1 SC42261.8 pseudovirus infected in human TZM-bl cells assessed as inhibition of viral entry into cells after 48 hrs by single-cycle infection assay; type: functional, organism-based; settings: Human immunodeficiency virus 1, SC42261.8, TZM-bl
[23] = test system: Human immunodeficiency virus 1; test: Ratio of IC50 for ENF-resistant HIV1 NL4-3 harboring gp41 N-terminal heptad repeat V38M mutant to IC50 for wild type HIV1 NL4-3; type: functional
[24] = biological target: Envelope glycoprotein gp160 (Human immunodeficiency virus type 1 group M subtype B (isolate HXB2)(HIV-1)) (UniProt P04578); test: Binding affinity to HIV-1 HXB2 gp41 N-terminal heptad repeat assessed as thermostability of protein-compound complex at 10 uM after 30 mins by CD spectroscopic analysis; settings: Human immunodeficiency virus 1
[25] = test system: Human immunodeficiency virus 1; test: Antiviral activity against ENF-resistant HIV1 NL4-3 harboring gp41 N-terminal heptad repeat N43K mutant infected in human TZM-bl cells assessed as inhibition of viral entry into cells after 48 hrs by single-cycle infection assay; type: functional, organism-based
[26] = test system: Human immunodeficiency virus 1; test: Antiviral activity against ENF-resistant HIV1 NL4-3 harboring gp41 N-terminal heptad repeat I37T/N43K double mutant infected in human TZM-bl cells assessed as inhibition of viral entry into cells after 48 hrs by single-cycle infection assay; type: functional, organism-based
[27] = biological target: Envelope glycoprotein gp160 (Human immunodeficiency virus 1) (UniProt Q72502); test: Binding affinity to HIV1 NL4-3 gp41 N-terminal heptad repeat V38A/N42T double mutant after 30 mins by CD spectroscopic analysis
[28] = test system: Human immunodeficiency virus 1; test: Ratio of IC50 for ENF-resistant HIV1 NL4-3 harboring gp41 N-terminal heptad repeat I37T mutant to IC50 for wild type HIV1 NL4-3; type: functional
[29] = test system: Human immunodeficiency virus 1; test: Antiviral activity against ENF-resistant HIV1 NL4-3 harboring gp41 N-terminal heptad repeat V38M mutant infected in human TZM-bl cells assessed as inhibition of viral entry into cells after 48 hrs by single-cycle infection assay; type: functional, organism-based
[30] = test system: Human immunodeficiency virus 1; test: Antiviral activity against wild type HIV1 NL4-3 infected in human TZM-bl cells assessed as inhibition of viral replication after 2 days by luciferase reporter gene assay; type: functional, organism-based; settings: Human immunodeficiency virus 1, NL4-3, TZM-bl, 48 h
[31] = test system: Human immunodeficiency virus 1; test: Antiviral activity against HIV1 NL4-3 pseudovirus infected in human TZM-bl cells assessed as inhibition of viral entry into cells after 48 hrs by single-cycle infection assay; type: functional, organism-based; settings: Human immunodeficiency virus 1, NL4-3, TZM-bl
[32] = biological target: Envelope glycoprotein gp160 (Human immunodeficiency virus 1) (UniProt Q72502); test: Binding affinity to HIV1 NL4-3 gp41 N-terminal heptad repeat Q40H mutant after 30 mins by CD spectroscopic analysis
[33] = biological target: Envelope glycoprotein gp160 (Human immunodeficiency virus 1) (UniProt Q72502); test: Binding affinity to HIV1 NL4-3 gp41 N-terminal heptad repeat G36D mutant after 30 mins by CD spectroscopic analysis
[34] = test system: Human immunodeficiency virus 1; test: Ratio of IC50 for ENF-resistant HIV1 NL4-3 harboring gp41 N-terminal heptad repeat V38A mutant to IC50 for wild type HIV1 NL4-3; type: functional
[35] = test system: Human immunodeficiency virus 1; test: Ratio of IC50 for ENF-resistant HIV1 NL4-3 harboring gp41 N-terminal heptad repeat I37T/N43K double mutant to IC50 for wild type HIV1 NL4-3; type: functional
[36] = biological target: Envelope glycoprotein gp160 (Human immunodeficiency virus 1) (UniProt Q72502); test: Binding affinity to HIV1 NL4-3 gp41 N-terminal heptad repeat N43K mutant after 30 mins by CD spectroscopic analysis
Serum = test: Metabolic stability in Sprague-Dawley rat serum at 4 mg/kg, ip measured at 0.5 to 4 hrs post dose; type: ADME, organism-based; settings: in vivo
[37] = biological target: Envelope glycoprotein gp160 (Human immunodeficiency virus type 1 group M subtype B (isolate HXB2)(HIV-1)) (UniProt P04578); test: Binding affinity to HIV-1 HXB2 gp41 N-terminal heptad repeat assessed as thermostability of compound after 30 mins by CD spectroscopic analysis; settings: Human immunodeficiency virus 1

Q: Which results are given for “H-WEAWDRAIAEYAARIEALIRAAQEQQEKNEAALREL-OH”?
A: IC50 [1]: 5.75 nM; Tm [2]: 46.1 °C; IC50 [3]: 0.73 nM; IC50 [4]: 1.4 nM; IC50 [5]: 1 nM; IC50 [6]: 1.2 nM; Ratio IC50 [7]: 0.6; IC50 [8]: 77.4 nM; Ratio IC50 [9]: 1.1; IC50 [10]: 2 nM; IC50 [11]: 7 nM; IC50 [12]: 1.9 nM; Activity [13]: Active; IC50 [14]: 1.34 nM; Activity [15]: Active; IC50 [16]: 1.1 nM; Activity [17]: Active; IC50 [18]: 0.6 nM; Ratio IC50 [19]: 1.9; Ratio IC50 [20]: 0.9; Ratio IC50 [21]: 1.7; IC50 [22]: 1.67 nM; Ratio IC50 [23]: 1.6; Tm [24]: 81.2 °C; IC50 [25]: 2.1 nM; IC50 [26]: 1.9 nM; Activity [27]: Active; Ratio IC50 [28]: 1.8; IC50 [29]: 1.7 nM; IC50 [30]: 0.48 nM; IC50 [31]: 1.07 nM; Activity [32]: Active; Activity [33]: Active; Ratio IC50 [34]: 1.3; Ratio IC50 [35]: 1.7; Activity [36]: Active; Stability (Serum): Stable

Q: Which results are given for H-TTWEAWDRAIAEYAARIEALIR-OH?
A: Tm [37]: 59.1 °C; IC50 [31]: 955 nM
